In a melting point compilation (Tetko et al.; mined from patent text by program, amines drawn as free bases though some values may be those of a salt) one finds melting point data, which are given here for 62 compounds.

Each structure is given as a SMILES string. A value given as a limit tells only on which side of the number the result lay.

As a reminder, the melting point is the temperature of the solid-liquid transition. For the compound `CC(C)(Cl)C(CCn1ccnc1[N+](=O)[O-])N=O` (configuration not stated), the melting point fell in the range of 96 to 97 °C.

Regarding `COc1ccc2c(c1)C(=O)c1cc(-c3nnn[nH]3)ccc1C2=O`, the melting point was 265 to 266 °C.

`CC(=O)Nc1cccc(-c2csc3nc(C45CC6CC(CC(C6)C4)C5)cn23)c1` displayed a melting point of 98 to 100 °C.

Regarding `O=C(O)[C@@H]1CCN2C(=O)CC[C@H](N3C(=O)c4ccccc4C3=O)C(=O)N12`, the melting point lay in the range of 232 to 233 °C.

As for `CCOC(=O)c1oc2ccc(Br)c(OC(C)C)c2c1C`, the melting point was in the range of 48 to 50 °C.

For `CCN1C(=O)C(=C2Oc3ccccc3N2CC)SC1=S`, the melting point was in the range of 165 to 166 °C.

The compound `CC(C)(C)NC(=O)C(C)(C)N(OC(c1ccccc1)c1ccccc1)C(C)(C)C` showed a melting point of 89 to 92 °C.

`COc1cc(CCCC2SC(=O)NC2=O)ccc1OCc1csc(/C=C/c2ccccc2)n1` (configuration not stated): the melting point fell in the range of 161 to 162 °C.

`CCCc1nnc(CCc2cc(OCc3ccc(OCc4nc(-c5ccccc5)oc4C)c(OC)c3)nn2-c2ccccc2)o1`: the melting point lay in the range of 85 to 86 °C.

For the compound `O=[N+]([O-])N=C1NC(O)CN1Cc1ccc(Cl)nc1` (configuration not stated), the melting point came to 170 °C.

Regarding `CC1Oc2c(F)cc(CN3CC=C(c4ccc(Cl)cc4)CC3)cc2NC1=O` (configuration not stated), the melting point was in the range of 214 to 233 °C.

In the case of `C=CCn1c(C)nc2c3c(ccc21)[C@@H](OCCF)[C@H](O)[C@@H](c1ccccc1)O3`, the melting point was found to be 117 °C.

For the compound `COCCOCCOCCn1c2ccc(C=O)cc2c2cc(C=O)ccc21`, the melting point lay in the range of 108 to 109 °C.

`O=C(c1ccc(NS(=O)(=O)c2ccccc2)cc1)N1CCCCc2ccccc21` came in with a melting point of 178 to 182 °C.

For `CC(=O)SCC(Cc1ccccc1)C(=O)Nc1ccccc1C(=O)O` (configuration not stated), the melting point was in the range of 121 to 122 °C.

As to `O=C1C2CCCC2=Nc2ccccc2N1Cc1ccc(Cl)cc1Cl` (configuration not stated), the melting point lay in the range of 144 to 145 °C.

As for `CC(C)(C)c1ccc(C(=O)Nc2cn3nc(NCc4cccnc4)ccc3n2)cc1`, the melting point was 232 to 233 °C.

The compound `CN1CCN(CCCNC(=O)CN2CCCC2=O)CC1` had a melting point of 93 °C.

In turn, `COC1(c2cccc(S(=O)(=O)c3ccc4c(c3)oc(=O)n4C)c2)CCOCC1` came in with a melting point of 163 to 165 °C.

As for `COc1ccc(C)cc1NC(=O)Nc1ccc(C2CCN(C(=O)Nc3ncccc3CO)CC2)cc1`, the melting point fell in the range of 105 to 110 °C.

Take `COc1ccc(C=Cc2nnc(C(Cl)(Cl)Cl)o2)cc1`: the melting point was 140 to 142 °C.

As for `CCN1OCCC(=Cc2cc(C(C)(C)C)c(O)c(C(C)(C)C)c2)C1=O`, the melting point lay in the range of 166 to 167 °C.

In the case of `CCCC(C)NC1=NS(=O)(=O)c2cc(Cl)c(Cl)cc2N1` (configuration not stated), the melting point was 217 to 220 °C.

In the case of `CCCn1nc2c(N)nc3ccccc3c2c1NCCC1CCN(S(C)(=O)=O)CC1`, the melting point lay in the range of 204 to 207 °C.

Regarding `CCCCCCc1ccc(-n2c(-c3ccc(C)cc3)ccc2-c2ccc(C)cc2)cc1`, the melting point lay within 147 to 148 °C.

Compound `CC(=O)Nc1c(C)c2c(c(C)c1[N+](=O)[O-])OC(C)(C)C2` registered a melting point of 203 to 204 °C.

The compound `O=C(CCCCCCCCCC=C(F)F)Nc1ccccc1Cl` gave a melting point of 54 to 55 °C.

`Clc1ccc(CNc2cc(Cl)nc(Cl)n2)cc1` had a melting point of 120 to 122 °C.

As for `O=C(Nc1ccc(Cl)cc1Cl)c1ccccc1SSc1ccccc1C(=O)Nc1ccc(Cl)cc1Cl`, the melting point was 227 to 228 °C.

Compound `CCOc1cc2c(Nc3cc(OC)c(Cl)cc3Cl)c(C#N)cnc2cc1OCCCN1CCN(C)CC1` displayed a melting point of 137 to 138 °C.

The compound `CNC(=O)Oc1cccc(NC(=O)C=C(C)OC)c1` returned a melting point of 175 °C.

Turning to `BrCC=C(c1ccc(I)cc1)c1ccc(I)cc1`, the melting point lay in the range of 105 to 109 °C.

As to `Cc1onc(C(F)(F)F)c1CS(=O)(=O)C1=NOC(C)(C)C1`, the melting point was 135 to 136 °C.

The compound `O=C(O)c1ccc2cccnc2c1O` gave a melting point of 264 to 266 °C.

`O=C(c1sccc1-n1cccc1)N1CCOCC1`: the melting point stood at 100 °C.

In turn, `Cc1cc(C)nc(NC(=O)NS(=O)(=O)C2CCCCCCCCCCC2Cl)n1` (configuration not stated) yielded a melting point of 84 °C.

Take `COc1cc(C#N)cc(-c2ccc3c(c2)C(C)(C)OC(=O)N3)c1`: the melting point was 254 to 255 °C.

With `COc1cc2ncnc(N3CCC(C(C)(O)CN4CCC(C)NS4(=O)=O)CC3)c2cc1OC` (configuration not stated), the melting point lay within 186 to 188 °C.

The compound `CN1C(=O)C(C(=O)Nc2cccc(C(F)(F)F)c2)S(=O)(=O)c2ccc(Cl)cc21` (configuration not stated) displayed a melting point of 196 to 200 °C.

Consider `CN(C)CCNc1ccc2c3c(nn2CCNC(=O)OC(C)(C)C)-c2cnccc2C(=O)c13`, for which the melting point lay in the range of 225 to 227 °C.

For the compound `c1ccc(-c2ccc(C3CN4CCC3CC4)cc2)cc1` (single isomer, unassigned; (+)), the melting point fell in the range of 85 to 86 °C.

As for `Cc1cccc(-c2n[nH]cc2-c2ccc(F)c(-c3ccc(S(N)(=O)=O)c(C(F)(F)F)c3)c2)n1`, the melting point is 107 to 110 °C.

Consider `CCN(C)c1cc(F)cc(C(=O)Nc2ccc(OCCN3CCOCC3)c3ccccc23)c1`, for which the melting point fell in the range of 126 to 128 °C.

With `CC(C)Cn1c(-c2ccccc2)nc2cnc3ccccc3c21`, the melting point is 139 to 140 °C.

`Cc1ccccc1Sc1cccc2c1OC(=O)C2` had a melting point of 108 to 109 °C.

`Cc1oc(-c2ccccc2)nc1COCc1cccc(COc2cc(Cl)ccc2C(=O)O)c1` returned a melting point of 137 °C.

Regarding `COC(=O)c1ccc2ccc(NC(=O)OC(C)(C)C)c(Br)c2c1`, the melting point is 137 to 140 °C.

`CC(=O)c1ccc(C2(O)CC(C)(C)CC(C)(C)C2)cc1`: the melting point was determined as 135 °C.

`COc1cc(C=Cc2ccccc2)ccc1O`: the melting point lay within 132 to 134 °C.

Compound `O=c1[nH][nH]c(=S)n(CCO)c1=O` yielded a melting point of 230 °C.

`C[C@@H]1S[C@@H](C(=O)Nc2ccc(Cn3oc(=O)[nH]c3=O)cc2)Cc2cc3c(cc2C1=O)OCO3` registered a melting point of 237 to 239 °C.

In the case of `CCOC(=O)c1ccc(N=C(Nc2ccc(C(=O)OCC)cc2)c2ccc(Cl)cc2)cc1`, the melting point was in the range of 171 to 172 °C.

Regarding `O=C1C(=O)N(Cc2ccc(Br)cc2)c2ccc(S(=O)(=O)N3CCCC3COc3ccccc3)cc21` (configuration not stated), the melting point fell in the range of 112 to 113 °C.

`CC1(C)OC2OC(C3NC(=O)CC3O)C(O)C2O1` (configuration not stated) displayed a melting point of 263 to 265 °C.

As to `CN1CCN(c2c(F)c(F)c3c(=O)c(C(=O)O)cn(C4CC4)c3c2F)CC1`, the melting point came to 245 °C.

`O=c1nc(CN2CCC[C@H](OCc3cc(Cl)cc(Cl)c3)[C@@H]2c2ccccc2)[nH][nH]1` yielded a melting point of over 220 °C.

`O=C(O)COc1ccc(F)cc1C(=O)NCc1ccc(Br)cc1F` displayed a melting point of 145 to 146 °C.

The compound `COc1ccc(C2=NOC3(C2)C(=O)CN(C)C3=O)cc1OC1CCCC1` (configuration not stated) displayed a melting point of 169 to 170 °C.

On to `CCC(COC)NC(=O)C(C)(C)c1ccc(-c2ccccc2)c(F)c1` (configuration not stated), for which the melting point lay in the range of 81 to 82 °C.

The compound `CON1C=C2N=NC3=C(N2C1)N(c1ccccc1Cl)CC(C)=C3` yielded a melting point of 198 to 200 °C.

Compound `CC(C)Oc1n[nH]c(=O)n1C1CC1` came in with a melting point of 146 to 147 °C.

Consider `CCOC(=O)c1cn(-c2ccccn2)nc1C`, for which the melting point lay in the range of 79 to 80 °C.
